Data set [1] in a line: Brain level after intravenous injection. The format is in vivo, ICR mice. The conditions noted are these: for Brain level (% of injected dose): Cy5.5 peptide i.v., Ave. How it is done: The final concentration of the peptide conjugate was 10 µM and that of siRNA was 48 nM based on blood volume calculation equivalent to 6% of the body weight. At different time points blood samples were collected via retro-orbital blood collection. For whole animal imaging system mice were anaesthetised with isoflurane and in vivo fluorescence images were taken (IVIS 200 Spectrum, USA), at different time points. […] The organs were homogenised (FastPrep-24™ 5G Instrument, MP Biomedicals, USA) and the levels of peptide and siRNA were measured in a fluorescence spectrometer (Fluotime 300, Picoquant, Berlin, Germany) using a standard curve.

Data set [2] in a line: Blood clearance after intravenous injection. The format is in vivo, ICR mice. Conditions: Cy5.5 peptide i.v., Ave. The procedure:
The final concentration of the peptide conjugate was 10 µM and that of siRNA was 48 nM based on blood volume calculation equivalent to 6% of the body weight. At different time points blood samples were collected via retro-orbital blood collection. For whole animal imaging system mice were anaesthetised with isoflurane and in vivo fluorescence images were taken (IVIS 200 Spectrum, USA), at different time points. At 4 h post administration, mice were sacrificed, and the liver, lungs, kidneys, spleen, pancreas and brain were collected and stored in liquid nitrogen. The organs were homogenised (FastPrep-24™ 5G Instrument, MP Biomedicals, USA) and the levels of peptide and siRNA were measured in a fluorescence spectrometer (Fluotime 300, Picoquant, Berlin, Germany) using a standard curve.

A further data set concerns hCMEC/D3 cells. In words: Uptake with internalisation inhibitors. The conditions noted are these: 37 °C.

Procedure for hCMEC/D3 cells: The medium was then removed and replaced with a fresh medium containing NLCs and the corresponding inhibitor. After 8 h of incubation at 37 °C, cells were washed three times with cell medium and analysed by FACS. Cell viability at the end of each experiment was >90% as determined by Trypan Blue exclusion test. The following inhibitors were used: 2-deoxy-D-glucose (1 mM)/sodium azide (1 mM) as energy-dependent inhibitors, worthmanin (10 μM) as macropinocytosis inhibitor, chloropromazine (30 μM) as clathrin-dependent endocytosis inhibitor, N-ethylmaleimide (5 μM) as caveolae-dependent endocytosis and transcytosis inhibitor and indomethacin (200 μM) as caveolae-dependent endocytosis inhibitor.

For “Cy5.5- CGYRPVHNIGHWRAPG [Cy5.5-CGY scrambled 1]”, the “Brain level (% of injected dose)” value is given as 0.74 % of injected dose in data set [1] (0.25 h); 1.20 % of injected dose in data set [1] (0.50 h); 1.71 % of injected dose in data set [1] (1.00 h); 1.92 % of injected dose in data set [1] (4.00 h); 1.01 % of injected dose in data set [1] (12.00 h); 0.39 % of injected dose in data set [1] (24.00 h). Also, in data set [1] (i.v., mice), the brain accumulation result is reported as “poorly accumulates in the brain”. The “Blood level (% of injected dose)” value in data set [2] (0.25 h) is given as 65.67 % of injected dose; in data set [2] (0.50 h), 27.80 % of injected dose; in data set [2] (1.00 h) it was 11.82 % of injected dose; in data set [2] (4.00 h) it was 6.91 % of injected dose; in data set [2] (12.00 h), 3.51 % of injected dose; in data set [2] (24.00 h) it was 1.61 % of injected dose.

On to Cy5.5-CGYRPVHNIRGHWAPG, for which the peak brain level in data set [1] (4 h after i.v., corrected for the blood content) is given as 5.7 % of the injected dose. For the same substance, the “Brain level (% of injected dose)” value in data set [1] (0.25 h) is reported as 2.16 % of injected dose; in data set [1] (0.50 h), 3.71 % of injected dose; in data set [1] (1.00 h) it was 5.40 % of injected dose; in data set [1] (4.00 h), 5.73 % of injected dose; in data set [1] (12.00 h) it was 3.72 % of injected dose; in data set [1] (24.00 h), 1.71 % of injected dose. The “Blood level (% of injected dose)” value in data set [2] (0.25 h) is reported as 77.38 % of injected dose; in data set [2] (0.50 h) it was 31.74 % of injected dose; in data set [2] (1.00 h) it was 14.16 % of injected dose; in data set [2] (4.00 h), 12.22 % of injected dose; in data set [2] (12.00 h), 6.13 % of injected dose; in data set [2] (24.00 h), 1.31 % of injected dose.

In the case of “Transferrin: Texas Red-labelled transferrin, TfR substrate, positive control [reference compound]”, the “Mean flouresence (%), uptake vs Control (no inhibitor)” value (“Mean flouresence (%) … (no inhibitor)” below) in the data set on hCMEC/D3 cells (CPZ (chloropromazine 30 μM), 8 h, replicate 1) is recorded as 55.06%; in the data set on hCMEC/D3 cells (CPZ (chloropromazine 30 μM), 8 h, replicate 2), 58.26%; with hCMEC/D3 cells (CPZ (chloropromazine 30 μM), 8 h, replicate 3), 48.74%; in the data set on hCMEC/D3 cells (DOG+NaN3 (1 mM/1 mM), 8 h, replicate 2) it was 38.57%; in the data set on hCMEC/D3 cells (DOG+NaN3 (1 mM/1 mM), 8 h, replicate 3) it was 34.62%; in the data set with hCMEC/D3 cells (DOG+NaN3 (2-deoxy-D-glucose 1 mM/sodium azide 1 mM), 8 h, replicate 1) it was 42.26%. For the same substance, the “Mean flouresence (%) … (no inhibitor)” value amounted to 102.05% with hCMEC/D3 cells (IMC (indomethacin 200 μM), 1 h pre-treatment + 8 h, FACS, FAM-CGY NLC 5 µM or Texas Red-transferrin 5 µg per well, replicate 1); 90.27% with hCMEC/D3 cells (IMC (indomethacin 200 μM), 8 h, replicate 2); 86.23% with hCMEC/D3 cells (NEM (N-ethylmaleimide 5 μM), 8 h, replicate 1); 95.58% with hCMEC/D3 cells (NEM (N-ethylmaleimide 5 μM), 8 h, replicate 2); 86.57% in the data set on hCMEC/D3 cells (NEM (N-ethylmaleimide 5 μM), 8 h, replicate 3); 112.26% with hCMEC/D3 cells (WOR (worthmanin 10 μM), 8 h, replicate 1). In addition, the “Mean flouresence (%) … (no inhibitor)” value in the data set on hCMEC/D3 cells (WOR (worthmanin 10 μM), 8 h, replicate 2) was 98.26%; with hCMEC/D3 cells (WOR (worthmanin 10 μM), 8 h, replicate 3), 108.61%.

(Values after article PMC6789111, “Crossing the blood-brain-barrier with nanoligand drug carriers self-assembled from a phage display peptide” (Nature Communications, 2019).)
